Experimental data published in ChEMBL document CHEMBL2157968, “Novel multipotent phenylthiazole-tacrine hybrids for the inhibition of cholinesterase activity, β-amyloid aggregation and Ca²⁺ overload” (Bioorg Med Chem, 2012).
Calls of active or inactive are those of the source. The calls are words filed in the database; no cut-off is given here.

Columns and labels:
Acetylcholinesterase = Acetylcholinesterase (Electrophorus electricus, UniProt O42275)
Description: Inhibition of electric eel AChE using acetylthiocholine chloride substrate incubated for 5 mins before substrate addition measured at 3 min interval by Ellman method

Cholinesterase = Cholinesterase (Equus caballus, UniProt P81908)
Description: Inhibition of equine serum BuChE using butyrylthiocholine chloride substrate incubated for 5 mins before substrate addition measured at 3 min interval by Ellman method

[1] = target: Acetylcholinesterase (Electrophorus electricus) (UniProt O42275); experiment: Mixed type inhibition of electric eel AChE using acetylthiocholine chloride substrate incubated for 5 mins before substrate addition measured at 3 min interval by Lineweaver-Burk plot analysis
Cerebral cortex neuron = experiment: Inhibition of KCl-induced Ca2+ overload in Sprague-Dawley rat primary cortical neurons assessed as reduction in F340/F380 fluorescence ratio at 1 uM by Fura-2/AM-based fluorescence assay; type: functional, cell-based

Sequence of Cholinesterase (P81908 whole entry): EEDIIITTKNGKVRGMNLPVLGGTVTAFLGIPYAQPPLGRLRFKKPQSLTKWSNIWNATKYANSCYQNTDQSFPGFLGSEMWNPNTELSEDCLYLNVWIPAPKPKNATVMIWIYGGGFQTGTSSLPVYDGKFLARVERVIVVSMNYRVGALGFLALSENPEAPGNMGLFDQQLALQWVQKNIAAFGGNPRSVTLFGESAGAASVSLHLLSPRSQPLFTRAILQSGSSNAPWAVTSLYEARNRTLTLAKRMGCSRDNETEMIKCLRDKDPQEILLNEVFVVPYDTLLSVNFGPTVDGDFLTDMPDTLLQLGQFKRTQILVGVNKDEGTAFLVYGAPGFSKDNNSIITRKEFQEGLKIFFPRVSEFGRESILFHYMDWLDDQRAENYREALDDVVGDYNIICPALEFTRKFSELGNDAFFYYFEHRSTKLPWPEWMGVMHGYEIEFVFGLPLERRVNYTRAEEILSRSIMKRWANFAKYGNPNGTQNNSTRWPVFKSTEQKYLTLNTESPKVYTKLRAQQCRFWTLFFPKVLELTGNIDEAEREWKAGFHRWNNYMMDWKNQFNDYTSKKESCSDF
Sequence of Acetylcholinesterase (O42275 whole entry): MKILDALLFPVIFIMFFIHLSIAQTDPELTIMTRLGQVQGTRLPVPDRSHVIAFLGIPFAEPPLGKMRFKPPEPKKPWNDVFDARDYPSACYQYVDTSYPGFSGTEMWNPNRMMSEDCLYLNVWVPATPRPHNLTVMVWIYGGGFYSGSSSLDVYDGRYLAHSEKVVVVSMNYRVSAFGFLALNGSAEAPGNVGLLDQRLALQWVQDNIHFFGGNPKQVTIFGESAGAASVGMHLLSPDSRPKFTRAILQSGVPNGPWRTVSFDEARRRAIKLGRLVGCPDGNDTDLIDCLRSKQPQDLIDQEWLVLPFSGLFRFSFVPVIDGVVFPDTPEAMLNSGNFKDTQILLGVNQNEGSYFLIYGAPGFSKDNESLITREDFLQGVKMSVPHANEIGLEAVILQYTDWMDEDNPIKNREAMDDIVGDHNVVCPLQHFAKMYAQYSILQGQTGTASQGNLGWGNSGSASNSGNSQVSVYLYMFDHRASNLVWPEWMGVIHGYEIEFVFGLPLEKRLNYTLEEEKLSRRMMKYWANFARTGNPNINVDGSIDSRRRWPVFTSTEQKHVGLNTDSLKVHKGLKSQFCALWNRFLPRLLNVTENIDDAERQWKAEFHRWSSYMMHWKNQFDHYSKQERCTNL
Sequence of Acetylcholinesterase (Electrophorus electricus) (O42275 24-633 limits assumed): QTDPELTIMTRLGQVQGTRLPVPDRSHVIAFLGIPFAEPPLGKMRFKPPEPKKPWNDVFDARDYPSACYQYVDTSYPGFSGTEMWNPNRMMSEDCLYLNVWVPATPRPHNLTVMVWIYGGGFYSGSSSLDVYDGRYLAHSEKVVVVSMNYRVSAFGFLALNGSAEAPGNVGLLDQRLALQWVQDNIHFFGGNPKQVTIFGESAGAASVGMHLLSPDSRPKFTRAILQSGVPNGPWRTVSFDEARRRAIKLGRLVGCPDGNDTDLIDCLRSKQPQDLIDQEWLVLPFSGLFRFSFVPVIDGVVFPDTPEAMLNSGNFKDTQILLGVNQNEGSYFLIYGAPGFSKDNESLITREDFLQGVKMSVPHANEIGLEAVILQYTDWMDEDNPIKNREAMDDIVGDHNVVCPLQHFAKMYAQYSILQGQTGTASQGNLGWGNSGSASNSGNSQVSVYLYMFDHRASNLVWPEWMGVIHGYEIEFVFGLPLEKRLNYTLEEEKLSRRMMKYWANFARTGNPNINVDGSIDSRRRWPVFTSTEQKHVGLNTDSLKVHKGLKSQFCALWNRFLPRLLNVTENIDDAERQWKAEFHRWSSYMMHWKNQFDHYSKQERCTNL

| Structure (SMILES) | IC50 (Acetylcholinesterase) | IC50 (Cholinesterase) | inhibition [1] | inhibition (Cerebral cortex neuron) |
| --- | --- | --- | --- | --- |
| O=C(CCCC(=O)Nc1nc(-c2ccccc2)cs1)NCCCNc1c2c(nc3ccccc13)CCCC2 | 380 nM | 1780 nM | – | – |
| O=C(CCC(=O)Nc1nc(-c2ccc(Cl)cc2)cs1)NCCCCNc1c2c(nc3ccccc13)CCCC2 | 1350 nM | 16.6 nM | – | – |
| CCN(CCCNc1c2c(nc3ccccc13)CCCC2)CCC(=O)Nc1nc(-c2ccc(OC)cc2)cs1 | 97.7 nM | 0.479 nM | – | – |
| O=C(CCC(=O)Nc1nc(-c2ccccc2)cs1)NCCCCNc1c2c(nc3ccccc13)CCCC2 | 490 nM | 0.603 nM | – | – |
| CCN(CCCNc1c2c(nc3ccccc13)CCCC2)CC(=O)Nc1nc(-c2ccccc2)cs1 | 105 nM | 0.0447 nM | – | – |
| O=C(CCC(=O)Nc1nc2c(s1)CCCC2)NCCCCNc1c2c(nc3ccccc13)CCCC2 | 1260 nM | 363 nM | – | – |
| CCN(CCCCNc1c2c(nc3ccccc13)CCCC2)CC(=O)Nc1nc(-c2ccccc2)cs1 | 158 nM | 14.8 nM | – | – |
| CCN(CCCCNc1c2c(nc3ccccc13)CCCC2)CC(=O)Nc1nc(-c2ccc(OC)cc2)cs1 | 1660 nM | 20.4 nM | – | – |
| CCN(CCCNc1c2c(nc3ccccc13)CCCC2)CCC(=O)Nc1nc(-c2ccc(Cl)cc2)cs1 | 1200 nM | 4.17 nM | – | – |
| CCN(CCCCNc1c2c(nc3ccccc13)CCCC2)CCC(=O)Nc1nc(-c2ccc(OC)cc2)cs1 | 288 nM | 6.61 nM | – | – |
| CCN(CCCCCCNc1c2c(nc3ccccc13)CCCC2)CC(=O)Nc1nc(-c2ccccc2)cs1 | 81.3 nM | 468 nM | – | – |
| CCN(CCCCNc1c2c(nc3ccccc13)CCCC2)CCC(=O)Nc1nc(-c2ccccc2)cs1 | 110 nM | 18.2 nM | – | – |
| CCN(CCCNc1c2c(nc3ccccc13)CCCC2)CC(=O)Nc1nc(-c2ccc(OC)cc2)cs1 | 1380 nM | 275 nM | – | – |
| O=C(CCC(=O)Nc1nc(-c2ccccc2)cs1)NCCCCCCNc1c2c(nc3ccccc13)CCCC2 | 72.4 nM | 0.355 nM | Active | – |
| CCN(CCCNc1c2c(nc3ccccc13)CCCC2)CCC(=O)Nc1nc(-c2ccccc2)cs1 | 324 nM | 6.03 nM | – | – |
| CCN(CCCCCCNc1c2c(nc3ccccc13)CCCC2)CC(=O)Nc1nc(-c2ccc(OC)cc2)cs1 | 158 nM | 589 nM | – | inactive |
| CCN(CCCCNc1c2c(nc3ccccc13)CCCC2)CC(=O)Nc1nc(-c2ccc(Cl)cc2)cs1 | 1620 nM | 77.6 nM | – | – |
| CCN(CCCCNc1c2c(nc3ccccc13)CCCC2)CCC(=O)Nc1nc(-c2ccc(Cl)cc2)cs1 | 120 nM | 45.7 nM | – | – |
| O=C(CCCC(=O)Nc1nc(-c2ccccc2)cs1)NCCCCNc1c2c(nc3ccccc13)CCCC2 | 282 nM | 0.55 nM | – | – |
